Measured values: patent US20260283149A1, “DEVELOPMENT AND APPLICATION OF SYNTHETIC INHIBITORS OF PHOTOSYNTHESIS” (University of Florida Research Foundation, Incorporated, priority 2023, published 2026)

Experiments:
[1] = tested on: Synechocystis sp. PCC6803 cells; test: Growth inhibition of Synechocystis sp. PCC 6803 in liquid BG-11 medium; assay type: cell-based; details: for inhibitory activity on growth of Synechocystis sp. PCC6803 cells (overall grade): tested at 10 and 25 microM; for growth inhibition of Synechocystis sp. PCC6803 cells: liquid BG-11 medium with glucose, growth monitored at 700 nm
Experimental: (§1) FIG. 11. Growth inhibition of Arabidopsis and Synechocystis by duroquinone, the unprenylated structural analogue of methyl-plastoquinone-9. (A) Structure of duroquinone. (B) Seven-day-old Arabidopsis plants (Col-0) grown on MS medium containing 1% sucrose (w/v) and 0, 10, 25, 50, or 100 μM duroquinone in 12-hour days (110 μE m^−2 s^−1) at 22° C. (C) Growth curve of Synechocystis sp. PCC 6803 at 30° C. in liquid BG-11 medium containing glucose, and with or without duroquinone. Data are means of three biological replicates±SE. Asterisks indicate significant differences (0 μM vs. 10 μM duroquinone) as determined by Fisher's test (p<α=0.05) from an analysis of variance.
FIG. 13. Growth inhibition of Synechocystis sp. PCC 6803 by structural analogues of methyl-plastoquinone-9. Synechocystis sp. PCC6803 cells were grown in liquid BG-11 medium containing […] (80 μE m^−2 s^−1; 24-hour days; 30° C.). Cell growth was monitored spectrophotometrically at 700 nm.
FIG. 15. Growth curve of Synechocystis treated with analogues grown photomixotrophically and photoautotrophically. Wild-type Synechocystis was grown in BG-11 and either with 5 mM glucose for photomixotrophic or w/o for photoautotrophic with treatment of either 0, 10 or 25 μM of the corresponding methylplastoquinone analog w/ 0.095% EtOH final and grown at a continuous light intensity of 50μ photons m^−2s^−1 at 30° C. with shaking 125 rpm. Data are means of 2 biological replicates ±SD.
Several analogues of Methylplastoquinone (FIG. 14) were tested for their ability to act as herbicides. Synechocystis were grown photomixotrophically (BG-11 plus 5 mM glucose) and photoautotrophically (BG-11 without glucose) at a continuous light intensity of 50μ photons m^−2s^−1 at 30° C. with shaking 125 rpm. The cultures were further treated with 0, 10, or 25 μM Doruquinone (DQ), 2,6-dimethly-1,4-benzoquinone (DMBQ), 2,6-dimethoxy-1,4-benzoquinone (DMOBQ), 2,6-dichloro-1,4-benzoquinone (DCBQ), or 2-chloro-1,4-benzoquinone (CBQ), each with […] ethanol.

[2] = tested on: Arabidopsis; test: Growth of Arabidopsis plants on MS medium containing the compound; assay type: in vivo, Arabidopsis thaliana (Col-0); details: 1% sucrose, 10-100 μM, applied at 2 to 50 times lower concentrations than standard herbicides such as DCMU or glyphosate
Experimental: as §1
Ten day-old Arabidopsis plants (Col-0) were grown on MS medium containing 1% sucrose (w/v), 0.095% EtOH, and 0, 10, 25, 50 or 100 μM methyl-plastoquinone analogues in 12-h days (photon flux of 110 μmol m^−2s^−1) at 22° C.

[3] = tested on: Arabidopsis; test: Accumulation of methyl-plastoquinone-9 in dexamethasone-induced plastid-targeted COQ5 Arabidopsis transgenics; assay type: in vivo, Arabidopsis thaliana; details: transgenics are seedling lethal
[4] = tested on: Synechocystis; test: Accumulation of methyl-plastoquinone-9 in COQ5-expressing Synechocystis DPhQ-MT knockout cells; assay type: cell-based, Synechocystis sp. PCC 6803; details: especially when cultured photoautotrophically; clones evolve suppressor mutations in COQ5
From the text: For expression in Synechocystis, gene sll1653 and N-terminally truncated versions of At5g57300 (S23→M23) and At1g23360 (V28→M28) cDNAs were PCR amplified using primers that contained the NdeI(5′) and BglII(3′) restriction sites. PCR fragments were cloned into NdeI/BglII-digested pSynExp-2 expression vector (Sattler S E et al. “Characterization of tocopherol cyclases from higher plants and cyanobacteria. Evolutionary implications for tocopherol synthesis and function.” Plant Physiol. 132, 2184-2195 (2003)), and the resulting constructs were introduced into Synechocystis Δsll1653::aadA knockout cells (Lohmann A et al. 2006). Transformed cells were selected on BG-11 plates containing and chloramphenicol ([…]), and spectinomycin (15 μg/ml) at 22° C. in 12-hour days (70 μE m^−2s^−1). […] Induction and analyses of chlorophyll fluorescence were performed on one month-old dark-adapted plants using a FluorCam 800 MF imaging system (Photon Systems Instruments).
To further investigate why clade 2 C-methyltransferases evolved strict substrate preference, the effect of replacing cognate cyanobacterial and plastid-targeted DPhQ-MT with a bifunctional COQ5 counterpart was examined. […] These constructs were then introduced into a Synechocystis DPhQ-MT knockout strain and the growth of individual clones was scored via serial dilution assays (FIG. 3 A-B).

Structure (SMILES) | inhibitory activity on growth of Synechocystis sp. PCC6803 cells (overall grade) [1] | growth inhibition of Synechocystis sp. PCC6803 cells ([1]; 25 microM) | growth inhibition of Synechocystis sp. PCC6803 cells ([1]; 10 microM) | further results
O=C1C=C(Cl)C(=O)C(Cl)=C1 [2,6-dichloro-1,4-benzoquinone] | low to marginal inhibitory activity |  |  | 
COC1=CC(=O)C=C(OC)C1=O [2,6-dimethoxy-1,4-benzoquinone] | low to marginal inhibitory activity |  |  | 
CC1=CC(=O)C=C(C)C1=O [2,6-dimethyl-1,4-benzoquinone] | intermediate inhibitory activity | complete growth inhibition |  | 
O=C1C=CC(=O)C(Cl)=C1 [2-chloro-1,4-benzoquinone] | as effective as duroquinone | complete growth inhibition | complete growth inhibition | 
CC1=C(C)C(=O)C(C)=C(C)C1=O [duroquinone] |  | complete growth inhibition | complete growth inhibition | toxicity in Arabidopsis [2]: marked toxicity
CC(C)=CCCC(C)=CCCC(C)=CCCC(C)=CCCC(C)=CCCC(C)=CCCC(C)=CCCC(C)=CCC/C(C)=C/CC1=C(C)C(=O)C(C)=C(C)C1=O [methyl-plastoquinone-9] |  |  |  | toxicity of accumulation in Arabidopsis COQ5 transgenics [3]: acutely toxic; toxicity of accumulation in Synechocystis COQ5 transformants [4]: acutely toxic
